{"source": "patent US7390523B2", "about": "“Method of forming a diffusion barrier layer for implantable devices” (Advanced Cardiovascular Systems Inc., priority 2000, dated 2008)", "key": {"[1]": {"assay": "24 hour elution of vinblastine from EVOH coated stents in phosphated saline solution, HPLC analysis", "assay_type": "physicochemical", "settings": "for ug Release: Sterilized (electron beam) stent, 5 ml phosphated saline pH 7.4, room temperature; for Total uG Released / uG Release per Hour: Sterilized stent", "procedure": "MULTI-LINK® stents were cleaned by placement in an ultrasonic bath of isopropyl alcohol solution for 10 minutes. The stents were dried and plasma cleaned in a plasma chamber. An EVOH solution was made with 1 gram of EVOH and 7 grams of DMSO, making an EVOH:DMSO ratio of 1:7. Vinblastine was added to the 1:7 EVOH:DMSO solution. Vinblastine constituted 2.5% by weight of the total weight of the solution. The solution was vortexed and placed in a tube. The cleaned MULTI-LINK® stents were attached to mandrel wires and dipped into the solution. The coated stents were passed over a hot plate, for about 3-5 seconds, with a temperature setting of about 60° C. The coated stents were cured for 6 hours in an air box then placed in a vacuum oven at 60° C. for 24 hours. The above process was repeated twice, having a total of three layers. The average weight of the coating was 0.00005 gram, with an estimated vinblastine concentration of 12 microgram per stent. Some of the stents were sterilized by electron beam radiation. The sterilized and unsterilized vinblastine coated stents were tested for a 24 hour elution period by placing one sterilized and one unsterilized stent in 5 ml of phosphated saline solution (pH 7.4) at room temperature with rotational motion. The amount of vinblastine eluted was evaluated by High Performance Liquid Chromatography (HPLC) analysis. The results of this test are given below in Tables 4A and 4B and plotted in FIG. 3."}, "[2]": {"system": "coronary arteries of a porcine stent injury model", "assay": "Reduction in restenosis in the porcine coronary artery stent injury model", "assay_type": "in vivo, Domestic swine", "settings": "28-day endpoint; for Percent Diameter Stenosis, angiographic data (QCA): microporous balloon catheter delivery before stenting", "procedure": "Porcine coronary models were used to assess the degree of the inhibition of neointimal formation in the coronary arteries of a porcine stent injury model by Actinomycin D, delivered with a microporous balloon catheter (1×10^6 pores/mm^2 with sizes ranging from 0.2-0.8 micron).\nThe preclinical animal testing was performed in accordance with the NIH Guide for Care and Use of Laboratory Animals. Domestic swine were utilized to evaluate effect of the drug on the inhibition of the neointimal formation. Each testing procedure, excluding the angiographic analysis at the follow-up endpoints, was conducted using sterile techniques. During the study procedure, the activated clotting time (ACT) was monitored regularly to ensure appropriate anticoagulation. Base line blood samples were collected for each animal before initiation of the procedure. Quantitative coronary angiographic analysis (QCA) and intravascular ultrasound (IVUS) analysis was used for vessel size assessment.\nThe vessels at the sites of the delivery were denuded by inflation of the PTCA balloons to 1:1 balloon to artery ratio and moving the balloons back and forth 5 times. The drug was delivered to the denuded sites at 3.5 atm (3.61 Kg/sq cm) for 2 minutes using the microporous balloon catheters before stent deployment. The average volume of delivery was about 3.3+/−1.2 ml. Following drug delivery, stents were deployed at the delivery site such that final stent to artery ratio was 1.1:1.\nQCA and IVUS analyses were used for stent deployment guidance. Pre-stenting IVUS measurements of the lumen size at the targeted vessel sites were performed for determination of the balloon (size) inflation pressure. Quantitative analysis of the stented coronary arteries to compare pre-stenting, post-stenting, follow-up minimal luminal diameters, stent recoil, and balloon/stent to artery ratio were performed. Following stent implantation and final angiogram, all devices were withdrawn and the wounds closed; the animals were allowed to recover from anesthesia as managed by the attending veterinarian or animal care professionals at the research center.\nUpon return to the research laboratory at the 28-day endpoint, angiographic assessments were performed. Coronary artery blood flow was assessed and the stented vessels were evaluated to determine minimal lumen diameter. The animals were euthanized following this procedure at the endpoint. Following euthanasia, the hearts were pressure perfusion fixed with formalin and prepared for histological analysis, encompassing light microscopy, and morphometry. Morphometric analysis of the stented arteries included assessment of the position of the stent struts and determination of vessel/lumen areas, percent (%) stenosis, injury scores, intimal and medial areas and intima/media ratios. Percent stenosis is quantitated by the following equation: 100(IEL area−lumen area)/IEL area\nwhere IEL is the internal elastic lamia.\nThe control group of animals received delivery of water instead of the drug. The test group of animals received actinomycin D in two different concentration of 10^−5M and 10^−4M. […] FIGS. 5A and 5B illustrate sample pictures of the histology slides of the coronary vessels from the control and the Dose 1 group, respectively."}}, "note": "“And” between values parts separate entries of the source, which are not always exact repeats. Equal values may be shown once. *1 amine or outer side, *2 acyl side, *3 side chain or, on linkers, in order; H or OH if unused. Where a SMILES comes first, the peptide text is derived from it. Bridges are numbered along the chain shown (N, C = ends). Roman numbers before positions name the chains, in order. [ ]: non-standard residue; d: D form. Actinocin(9to1) = Cc1c2oc3c(C)ccc(C(=O)[*:1])c3nc-2c(C(=O)[*:2])c(N)c1=O; NMeV = CN[C@H](C(=O)O)C(C)C; Sar = CNCC(=O)O"}
{"smiles": "CC[C@]1(O)C[C@@H]2CN(CCc3c([nH]c4ccccc34)[C@@](C(=O)OC)(c3cc4c(cc3OC)N(C)[C@H]3[C@@](O)(C(=O)OC)[C@H](OC(C)=O)[C@]5(CC)C=CCN6CC[C@]43[C@@H]65)C2)C1", "note": "[Vinblastine]", "values": [{"measurement": "ug Release", "setting": "[1]; 0 Hours", "result": 0, "unit": "µg"}, {"measurement": "ug Release", "setting": "[1]; 0.5 Hours", "result": 2.14, "unit": "µg"}, {"measurement": "ug Release", "setting": "[1]; 3 Hours", "result": 1.7, "unit": "µg"}, {"measurement": "ug Release", "setting": "[1]; 4 Hours", "result": 0.28, "unit": "µg"}, {"measurement": "ug Release", "setting": "[1]; 6 Hours", "result": 0.26, "unit": "µg"}, {"measurement": "ug Release", "setting": "[1]; 24 Hours", "result": 2.05, "unit": "µg"}, {"measurement": "Total uG Released", "setting": "[1]; 0 Hours", "result": 0, "unit": "uG"}, {"measurement": "uG Release per Hour", "setting": "[1]; 0 Hours", "result": 0, "unit": "uG per Hour"}, {"measurement": "Total uG Released", "setting": "[1]; 0.5 Hours", "result": 2.14, "unit": "uG"}, {"measurement": "uG Release per Hour", "setting": "[1]; 0.5 Hours", "result": 4.28, "unit": "uG per Hour"}, {"measurement": "Total uG Released", "setting": "[1]; 3 Hours", "result": 3.84, "unit": "uG"}, {"measurement": "uG Release per Hour", "setting": "[1]; 3 Hours", "result": 0.68, "unit": "uG per Hour"}, {"measurement": "Total uG Released", "setting": "[1]; 4 Hours", "result": 4.12, "unit": "uG"}, {"measurement": "uG Release per Hour", "setting": "[1]; 4 Hours", "result": 0.28, "unit": "uG per Hour"}, {"measurement": "Total uG Released", "setting": "[1]; 6 Hours", "result": 4.38, "unit": "uG"}, {"measurement": "uG Release per Hour", "setting": "[1]; 6 Hours", "result": 0.13, "unit": "uG per Hour"}, {"measurement": "Total uG Released", "setting": "[1]; 24 Hours", "result": 6.43, "unit": "uG"}, {"measurement": "uG Release per Hour", "setting": "[1]; 24 Hours", "result": 0.11, "unit": "uG per Hour"}, {"measurement": "effect of electron beam radiation procedure on the release of vinblastine from EVOH", "setting": "[1]; sterilized vs unsterilized coated stents, 24 hour elution", "result": "does not interfere"}]}
{"smiles": "Cc1c2oc3c(C)ccc(C(=O)N[C@@H]4C(=O)N[C@H](C(C)C)C(=O)N5CCC[C@H]5C(=O)N(C)CC(=O)N(C)[C@@H](C(C)C)C(=O)O[C@@H]4C)c3nc-2c(C(=O)N[C@@H]2C(=O)N[C@H](C(C)C)C(=O)N3CCC[C@H]3C(=O)N(C)CC(=O)N(C)[C@@H](C(C)C)C(=O)O[C@@H]2C)c(N)c1=O", "note": "[actinomycin D] (I: T[dV]P[Sar][NMeV] / II: T[dV]P[Sar][NMeV]; ester I:1-I:C, II:1-II:C; linker I:N-II:N via Actinocin(9to1))", "values": [{"measurement": "Percent Stenosis (IEL area-lumen area)/IEL area, histomorphometric data", "setting": "[2]; DOSE 1 1E−05 M, n = 30", "result": 51.8, "unit": "%"}, {"measurement": "Residual Lumen (Lumen area)/IEL area, histomorphometric data", "setting": "[2]; DOSE 1 1E−05 M, n = 30", "result": 0.49}, {"measurement": "Percent Diameter Stenosis, angiographic data (QCA)", "setting": "[2]; DOSE 1 1E−05 M, n = 10", "result": 36.8, "unit": "%"}, {"measurement": "Percent Stenosis (IEL area-lumen area)/IEL area, histomorphometric data", "setting": "[2]; DOSE 2 1E−04 M, n = 21", "result": 54.1, "unit": "%"}, {"measurement": "Residual Lumen (Lumen area)/IEL area, histomorphometric data", "setting": "[2]; DOSE 2 1E−04 M, n = 21", "result": 0.46}, {"measurement": "Percent Diameter Stenosis, angiographic data (QCA)", "setting": "[2]; DOSE 2 1E−04 M, n = 7", "result": "32.3+/−11.7% and 32.3%"}]}
